Test results: patent publication US10568939B2, “Composition and method for improving sleep duration and quality” (Board of Supervisors of Louisiana State University and …, priority 2016, dated 2020)

Experiments:
[1] = Effect of individual components alone versus the novel combination on sleep; type: in vivo, human; conditions: component alone or novel combination
TNF-α = target: T1, TNF-α (Homo sapiens, UniProt P01375); assay: TNF-α level by ELISA, supernatants of LPS-treated HT-29 cell cultures; type: cell-based; conditions: HT-29 supernatants, EGCG 20, 35, 50 μM, FIG. 4
T1 construct: TNF-alpha levels in HT-29 cell culture treated with LPS; endogenous in cells; host or cells: HT-29 (culture supernatant)
Description: (§1) A series of in vitro tests were conducted, using levels of components that would be expected to approximate the concentrations that would be seen in vivo following oral consumption of 2 fluid ounces of the novel composition by a 70 kilogram individual.
(§2) • a. Inhibition of Janus kinase 3 (Jak3) by EGCG, CE, or a mixture of EGCG and CE. Jak3 is expressed solely in immune cells. Jak3 expression is an upstream event for the activation of TNF-α and subsequent cytokines such as IL-6. HT-29 colon cancer cells in T-75 flasks were stimulated by LPS (control). HT-29 cells in T-75 flasks were also stimulated by LPS and treated with EGCG (Treatment 1=20 μM (E1), Treatment 2=35 μM (E2), or Treatment 3=50 μM (E3)), CE (extract from 3 g (C1), 6 g (C2), or 10 g (C3) of light roasted chicory), or combinations of the respective low, medium, and high concentrations of EGCG and CE (E1C1, E2C2, or E3C3). C1, C2, or C3 concentrations approximated the levels that would be expected following consumption of 2 fluid ounces of the novel composition by a 70 kilogram individual. […] The effects of the treatments on histamine activity were determined by the inhibition of COX-2 expression. […] The effective concentrations of TNF-α, IL-1β or IL-6 in supernatants were calculated using a standard curve developed using known standards of TNF-α, IL-1β or IL-6. […]

Janus kinase 3 (Jak3) = assay: Inhibition of Janus kinase 3 (Jak3) expression in LPS-stimulated HT-29 cells; type: cell-based; conditions: HT-29 cells stimulated by LPS; EGCG 20, 35, 50 μM; CE from 3, 6, 10 g light roasted chicory; combinations E1C1, E2C2, E3C3; triplicates; FIG. 2
Description: as §1, §2

COX-2 expression = assay: Anti-histamine activity: inhibition of COX-2 expression in histamine-treated HeLa cells; type: cell-based; conditions: 1 μmol/L histamine, 18 h, EGCG 20, 35, 50 μM, positive controls mepyramine maleate and JNJ-7777120, FIG. 3
Description: as §1, §2

IL-1β = target: T2, IL-1β (Homo sapiens, UniProt P01584); assay: IL-1β level by ELISA, supernatants of LPS-treated HT-29 cell cultures; type: cell-based; conditions: HT-29 supernatants, EGCG 20, 35, 50 μM, FIG. 5
T2 construct: IL-1β levels in HT-29 cell culture treated with LPS; endogenous in cells; host or cells: HT-29 (culture supernatant)
Description: as §1, §2

IL-6 = target: T3, IL-6 (Homo sapiens, UniProt P05231); assay: IL-6 level by ELISA, supernatants of LPS-treated HT-29 cell cultures; type: cell-based; conditions: HT-29 supernatants, EGCG 20, 35, 50 μM, FIG. 6
T3 construct: IL-6 levels in HT-29 cell culture treated with LPS; endogenous in cells; host or cells: HT-29 (culture supernatant)
Description: as §1, §2

T1 sequence (P01375 77-233 limits assumed): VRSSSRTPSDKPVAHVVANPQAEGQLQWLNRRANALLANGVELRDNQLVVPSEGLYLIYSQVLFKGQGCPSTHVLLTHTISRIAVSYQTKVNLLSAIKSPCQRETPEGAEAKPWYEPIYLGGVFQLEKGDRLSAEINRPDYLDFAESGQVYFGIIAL
T2 sequence (P01584 117-269): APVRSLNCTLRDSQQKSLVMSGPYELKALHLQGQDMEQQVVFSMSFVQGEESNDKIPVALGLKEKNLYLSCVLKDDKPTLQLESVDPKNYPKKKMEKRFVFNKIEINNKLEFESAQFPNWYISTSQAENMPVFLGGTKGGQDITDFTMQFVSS
T3 sequence (P05231 30-212): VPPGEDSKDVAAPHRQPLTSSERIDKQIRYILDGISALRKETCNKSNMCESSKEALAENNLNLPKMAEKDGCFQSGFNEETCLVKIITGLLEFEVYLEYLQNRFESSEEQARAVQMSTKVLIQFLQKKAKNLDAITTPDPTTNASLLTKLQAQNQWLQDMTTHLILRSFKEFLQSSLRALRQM

Row | SMILES | Sleep after awakening in the middle of the night [1] | Sleep onset, depth, efficiency, duration [1] | TNF-α activity/level (TNF-α) | Jak3 expression (Janus kinase 3 (Jak3)) | COX-2 expression (anti-histamine activity) (COX-2 expression) | IL-1β activity/level (IL-1β) | IL-6 activity/level (IL-6)
1 | CCNC(=O)CC[C@H](N)C(=O)O [Theanine] | does not improve sleep after awakening in the middle of the night | does not enhance sleep onset, depth, efficiency, or duration |  |  |  |  | 
2 | O=C(O[C@@H]1Cc2c(O)cc(O)cc2O[C@@H]1c1cc(O)c(O)c(O)c1)c1cc(O)c(O)c(O)c1 [EGCG, Epigallocatechin gallate] | does not improve sleep after awakening in the middle of the night | does not enhance sleep onset, depth, efficiency, or duration | inhibited the activity of each of TNF-α, IL-1β and IL-6 in a dose-dependent manner | inhibited Jak3 expression in a dose-dependent manner | inhibited COX-2 expression in a dose-dependent manner, although not as strongly as did the positive controls | inhibited the activity of each of TNF-α, IL-1β and IL-6 in a dose-dependent manner | inhibited the activity of each of TNF-α, IL-1β and IL-6 in a dose-dependent manner
